{"source": "paper PMC7136079", "about": "(Translational and Clinical Pharmacology, 2020)", "key": {"[1]": {"conditions": "cited from earlier work; for within-subject variability (coefficient of variation) of Cmax: ref unpublished previous study results"}}, "note": "Like-named read-outs stand apart in the source and are kept apart here."}
{"smiles": "N[C@@H](CC(=O)N1CCc2c(nc(C(F)(F)F)nc2C(F)(F)F)C1)CN1CC(F)(F)CCC1=O", "note": "[Gemigliptin]", "values": [{"measurement": "Tmax", "setting": "[1]; 50 mg", "result": "approximately 2 hours"}, {"measurement": "terminal half-life (t1/2)", "setting": "[1]", "result": 17.1, "unit": "h"}, {"measurement": "time at which maximum concentration (Cmax) was attained", "setting": "[1]", "result": 2, "unit": "h"}, {"measurement": "pharmacokinetic dose linearity", "setting": "[1]; dose range of 50–400 mg", "result": "linearity"}, {"measurement": "within-subject variability (coefficient of variation) of Cmax", "setting": "[1]; fasted state, 2016", "result": "approximately 23.4%"}, {"measurement": "within-subject variability (coefficient of variation) of Cmax", "setting": "[1]; fed state, 2015", "result": "approximately 20.4%"}, {"measurement": "AUCinf geometric mean ratio (90% CI)", "setting": "fed state, ratio of the FDC to the loose combination", "result": "0.9940 (0.9691–1.0195)"}]}
{"smiles": "CN(C)C(=N)N=C(N)N", "note": "[Metformin]", "values": [{"measurement": "time to reach Cmax", "setting": "[1]; extended-release formulations", "result": "4 to 8", "unit": "h"}, {"measurement": "Tmax", "setting": "fed state (high fat meal), given as loose combination gemigliptin 50 mg + metformin XR 1,000 mg, n = 30, median [minimum–maximum]", "result": "6.00 [4.00–8.03] h"}, {"measurement": "Tmax", "setting": "human, plasma, oral", "result": 6.04, "unit": "h"}]}
